Data: patent US20060069132A1, “Azolecarboxamide herbicides” (priority 2004, published 2006)
Like-named read-outs stand apart in the source and are kept apart here.

Tests used:
[1] = tested on: smallflower umbrella sedge; experiment: Test C flooded paddy test; format: in vivo, Cyperus difformis; conditions: Cyperus difformis
lambsquarters = experiment: Test C pre-/postemergence herbicide test; format: in vivo, Chenopodium album; conditions: for pest or weed control at 125 g/ha: 125 g ai/ha
In short: (§1)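 Visual ratings on a 0–100 scale (100 = complete control) made versus untreated controls after 12 to 14 greenhouse days. Test chemicals, formulated in surfactant-containing non-phytotoxic solvent, applied preemergence to planted seeds or postemergence to 1- to 4-leaf plants (2 to 18 cm).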

pigweed = experiment: Test B pre-/postemergence herbicide test; format: in vivo, Amaranthus retroflexus; conditions: Amaranthus retroflexus, 336 h; for pest or weed control at 125 g/ha: 125 g ai/ha
In short: (§2)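 Visual rating, 0 (no effect) to 100 (complete control), versus untreated controls after 13–15 d in greenhouse. Pre- and postemergence applications (postemergence plants 2–18 cm, 1–4 leaves); flooded paddy arm at 2-leaf stage. Compounds in non-phytotoxic solvent plus surfactant.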

common ragweed = experiment: Test C pre-/postemergence herbicide test; format: in vivo, Ambrosia elatior; conditions: for pest or weed control at 125 g/ha: 125 g ai/ha
In short: as §1

large crabgrass = experiment: Test C pre-/postemergence herbicide test; format: in vivo, Digitaria sanguinalis; conditions: for pest or weed control at 250 g/ha: 250 g ai/ha
In short: as §1

kochia = experiment: Test C pre-/postemergence herbicide test; format: in vivo, Kochia scoparia; conditions: for pest or weed control at 125 g/ha: 125 g ai/ha
In short: as §1

goosegrass = experiment: Test C pre-/postemergence herbicide test; format: in vivo, Eleusine indica; conditions: for pest or weed control at 125 g/ha: 125 g ai/ha
In short: as §1

giant foxtail = experiment: Test B pre-/postemergence herbicide test; format: in vivo, Setaria faberi; conditions: Setaria faberi, 336 h; for pest or weed control at 500 g/ha: 500 g ai/ha; for pest or weed control at 125 g/ha: 125 g ai/ha
In short: as §2

Surinam grass = experiment: Test C pre-/postemergence herbicide test; format: in vivo, Urochloa decumbens; conditions: for pest or weed control at 125 g/ha: 125 g ai/ha
In short: as §1

CCOC(=O)c1cccc(NC(=O)c2cc(C(C)(C)C)nn2CC)c1 [Compound 80, ethyl 3-[[[3-(1,1-dimethylethyl)-1-ethyl-1H-pyrazol-5-yl]carbonyl]-amino]benzoate]
0: Plant response rating (0 = no effect, 100 = complete control), Lambsquarters (lambsquarters; 62 g ai/ha, preemergence) | Plant response rating (0 = no effect, 100 = complete control), Ragweed (common ragweed; 62 g ai/ha, preemergence) | Plant response rating (0 = no effect, 100 = complete control), Crabgrass, Large (large crabgrass; 62 g ai/ha, preemergence) | Plant response rating (0 = no effect, 100 = complete control), Surinam Grass (Surinam grass; 62 g ai/ha, preemergence)
90%: pest or weed control at 62 g/ha (lambsquarters; Chenopodium album, post-emergence, postemergence, 62 g ai/ha, scale 0 to 100, read-out: Plant response rating, Lambsquarters) | pest or weed control at 250 g/ha (large crabgrass; Digitaria sanguinalis, post-emergence, 312 h, Postemergence, scale 0 to 100, 0 no effect, 100 complete control, read-out: Plant response rating, Crabgrass, Large) | pest or weed control at 62 g/ha (large crabgrass; Digitaria sanguinalis, post-emergence, 312 h, postemergence, 62 g ai/ha, scale 0 to 100, read-out: Plant response rating, Crabgrass, Large) | pest or weed control at 500 g/ha (giant foxtail; post-emergence, Postemergence, visual rating after 13 to 15 days, scale 0 (no effect) to 100 (complete control), read-out: Plant response rating, Foxtail, Giant)
0%: pest or weed control at 31 g/ha (lambsquarters; Chenopodium album, pre-emergence, 31 g ai/ha, preemergence, scale 0 to 100, read-out: Plant response rating, Lambsquarters) | pest or weed control at 125 g/ha (pigweed; pre-emergence, preemergence, 0 to 100 scale, 0 is no effect, 100 is complete control, read-out: Plant response rating, Pigweed) | pest or weed control at 31 g/ha (common ragweed; Ambrosia artemisiifolia, pre-emergence, 31 g ai/ha, preemergence, scale 0 to 100, read-out: Plant response rating, Ragweed) | pest or weed control at 125 g/ha (common ragweed; Ambrosia artemisiifolia, pre-emergence, scale 0 (no effect) to 100 (complete control), visual, 12 to 14 days, read-out: Plant response rating, Ragweed) | pest or weed control at 31 g/ha (large crabgrass; Digitaria sanguinalis, pre-emergence, 312 h, 31 g ai/ha, preemergence, scale 0 to 100, read-out: Plant response rating, Crabgrass, Large) | pest or weed control at 31 g/ha (Surinam grass; Urochloa decumbens, pre-emergence, 312 h, 31 g ai/ha, preemergence, scale 0 to 100, read-out: Plant response rating, Surinam Grass)
100%: pest or weed control at 250 g/ha (lambsquarters; Chenopodium album, post-emergence, Postemergence, 250 g ai/ha, scale 0 to 100, 0 no effect, 100 complete control, read-out: Plant response rating, Lambsquarters) | pest or weed control at 125 g/ha (lambsquarters; Chenopodium album, post-emergence, postemergence, scale 0 to 100, read-out: Plant response rating, Lambsquarters) | pest or weed control at 500 g/ha (pigweed; post-emergence, Postemergence, 500 g ai/ha, visual rating after 13 to 15 days, scale 0 (no effect) to 100 (complete control), read-out: Plant response rating, Pigweed) | pest or weed control at 125 g/ha (pigweed; post-emergence, postemergence, visual rating, scale 0 (no effect) to 100 (complete control), read-out: Pigweed plant response rating) | pest or weed control at 250 g/ha (kochia; Bassia scoparia, post-emergence, Postemergence, 250 g ai/ha, scale 0 to 100, 0 no effect, 100 complete control, read-out: Plant response rating, Kochia) | pest or weed control at 125 g/ha (kochia; Bassia scoparia, post-emergence, postemergence, scale 0 to 100, read-out: Plant response rating, Kochia) | pest or weed control at 62 g/ha (kochia; Bassia scoparia, post-emergence, postemergence, 62 g ai/ha, scale 0 to 100, read-out: Plant response rating, Kochia)
70%: pest or weed control at 62 g/ha ([1]; 62 g ai/ha, scale 0 to 100 (0 no effect, 100 complete control), read-out: Sedge, Umbrella plant response rating) | pest or weed control at 125 g/ha ([1]; 125 g ai/ha, scale of 0 to 100, 0 is no effect, 100 is complete control, read-out: Sedge, Umbrella plant response rating) | pest or weed control at 250 g/ha ([1]; 250 g ai/ha, scale of 0 to 100, 0 is no effect, 100 is complete control, read-out: Sedge, Umbrella plant response rating) | pest or weed control at 500 g/ha ([1]; 500 g ai/ha, visual rating after 12 to 14 days, scale 0 to 100 (0 no effect, 100 complete control), read-out: Plant response rating, Sedge, Umbrella) | pest or weed control at 250 g/ha (common ragweed; Ambrosia artemisiifolia, post-emergence, Postemergence, 250 g ai/ha, scale 0 to 100, 0 no effect, 100 complete control, read-out: Plant response rating, Ragweed) | pest or weed control at 125 g/ha (common ragweed; Ambrosia artemisiifolia, post-emergence, postemergence, scale 0 to 100, read-out: Plant response rating, Ragweed) | pest or weed control at 62 g/ha (common ragweed; Ambrosia artemisiifolia, post-emergence, postemergence, 62 g ai/ha, scale 0 to 100, read-out: Plant response rating, Ragweed) | pest or weed control at 500 g/ha (giant foxtail; pre-emergence, Preemergence, scale 0 to 100, read-out: Foxtail, Giant plant response rating)
80%: pest or weed control at 250 g/ha (goosegrass; Eleusine indica, post-emergence, 312 h, Postemergence, 250 g ai/ha, scale 0 to 100, 0 no effect, 100 complete control, read-out: Plant response rating, Goosegrass) | pest or weed control at 125 g/ha (goosegrass; Eleusine indica, post-emergence, 312 h, postemergence, scale 0 to 100, read-out: Plant response rating, Goosegrass) | pest or weed control at 62 g/ha (goosegrass; Eleusine indica, post-emergence, 312 h, postemergence, 62 g ai/ha, scale 0 to 100, read-out: Plant response rating, Goosegrass) | pest or weed control at 250 g/ha (Surinam grass; Urochloa decumbens, post-emergence, 312 h, Postemergence, 250 g ai/ha, scale 0 to 100, 0 no effect, 100 complete control, read-out: Plant response rating, Surinam Grass) | pest or weed control at 125 g/ha (Surinam grass; Urochloa decumbens, post-emergence, 312 h, postemergence, scale 0 to 100, read-out: Plant response rating, Surinam Grass) | pest or weed control at 62 g/ha (Surinam grass; Urochloa decumbens, post-emergence, 312 h, postemergence, 62 g ai/ha, scale 0 to 100, read-out: Plant response rating, Surinam Grass)
10: Plant response rating (0 = no effect, 100 = complete control), Kochia (kochia; 62 g ai/ha, preemergence) | Plant response rating (0 = no effect, 100 = complete control), Goosegrass (goosegrass; 62 g ai/ha, preemergence)
50%: pest or weed control at 125 g/ha (giant foxtail; post-emergence, postemergence, visual rating, scale 0 (no effect) to 100 (complete control), read-out: Foxtail, Giant plant response rating)
10%: pest or weed control at 125 g/ha (lambsquarters; Chenopodium album, pre-emergence, scale 0 (no effect) to 100 (complete control), visual, 12 to 14 days, read-out: Plant response rating, Lambsquarters) | pest or weed control at 125 g/ha (large crabgrass; Digitaria sanguinalis, pre-emergence, 312 h, 125 g ai/ha, scale 0 (no effect) to 100 (complete control), visual, 12 to 14 days, read-out: Plant response rating, Crabgrass, Large) | pest or weed control at 250 g/ha (large crabgrass; Digitaria sanguinalis, pre-emergence, 312 h, scale 0 to 100 (0 no effect, 100 complete control), visual, 12 to 14 days, read-out: Plant response rating, Crabgrass, Large) | pest or weed control at 31 g/ha (kochia; Bassia scoparia, pre-emergence, 31 g ai/ha, preemergence, scale 0 to 100, read-out: Plant response rating, Kochia) | pest or weed control at 125 g/ha (kochia; Bassia scoparia, pre-emergence, scale 0 (no effect) to 100 (complete control), visual, 12 to 14 days, read-out: Plant response rating, Kochia) | pest or weed control at 31 g/ha (goosegrass; Eleusine indica, pre-emergence, 312 h, 31 g ai/ha, preemergence, scale 0 to 100, read-out: Plant response rating, Goosegrass) | pest or weed control at 125 g/ha (goosegrass; Eleusine indica, pre-emergence, 312 h, scale 0 (no effect) to 100 (complete control), visual, 12 to 14 days, read-out: Plant response rating, Goosegrass) | pest or weed control at 125 g/ha (Surinam grass; Urochloa decumbens, pre-emergence, 312 h, scale 0 (no effect) to 100 (complete control), visual, 12 to 14 days, read-out: Plant response rating, Surinam Grass)
20%: pest or weed control at 125 g/ha (giant foxtail; pre-emergence, preemergence, 0 to 100 scale, 0 is no effect, 100 is complete control, read-out: Plant response rating, Foxtail, Giant)
